Assay results: ChEMBL document CHEMBL1201862, “PubChem BioAssay data set” (2004)
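Growth conditions: 96-well plates. Treatment: test compound, 48 hours, 5 concentrations. Analysis: linear interpolation between bracketing concentrations; unreached endpoints set to highest concentration. Abbreviation: GI50, concentration required for 50% inhibition of growth.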 Activity calls are given as the source filed them. Rule as the data show it: active = GI50 up to about 1.1 µM and inactive = higher.

Columns and labels:
Assay in all cases: NCI tumour cell line growth inhibition, 48 h
786-0 = tested on: 786-0
A498 = tested on: A498
A549 = tested on: A549
ACHN = tested on: ACHN
CAKI-1 = tested on: CAKI-1
CCRF-CEM = tested on: CCRF-CEM
COLO 205 = tested on: COLO 205
DU-145 = tested on: DU-145
EKVX = tested on: EKVX
HCC 2998 = tested on: HCC 2998
HCT-116 = tested on: HCT-116
HCT-15 = tested on: HCT-15
HL-60 = tested on: HL-60
HOP-62 = tested on: HOP-62
HOP-92 = tested on: HOP-92
HT-29 = tested on: HT-29
Hs-578T = tested on: Hs-578T
IGROV-1 = tested on: IGROV-1
K562 = tested on: K562
KM12 = tested on: KM12
LOX IMVI = tested on: LOX IMVI
M14 = tested on: M14
MCF7 = tested on: MCF7
MDA-MB-231 = tested on: MDA-MB-231
MDA-MB-435 = tested on: MDA-MB-435
MDA-N = tested on: MDA-N
MOLT-4 = tested on: MOLT-4
Malme-3M = tested on: Malme-3M
NCI-H226 = tested on: NCI-H226
NCI-H23 = tested on: NCI-H23
NCI-H460 = tested on: NCI-H460
NCI-H522 = tested on: NCI-H522
NCI/ADR-RES = tested on: NCI/ADR-RES
OVCAR-3 = tested on: OVCAR-3
OVCAR-4 = tested on: OVCAR-4
OVCAR-5 = tested on: OVCAR-5
OVCAR-8 = tested on: OVCAR-8
PC-3 = tested on: PC-3
RPMI-8226 = tested on: RPMI-8226
RXF 393 = tested on: RXF 393
SF-268 = tested on: SF-268
SF-295 = tested on: SF-295
SF-539 = tested on: SF-539
SK-MEL-28 = tested on: SK-MEL-28
SK-MEL-2 = tested on: SK-MEL-2
SK-MEL-5 = tested on: SK-MEL-5
SK-OV-3 = tested on: SK-OV-3
SN12C = tested on: SN12C
SNB-19 = tested on: SNB-19
SNB-75 = tested on: SNB-75
SR = tested on: SR
SW-620 = tested on: SW-620
T47D = tested on: T47D
TK-10 = tested on: TK-10
U-251 = tested on: U-251
UACC-257 = tested on: UACC-257
UACC-62 = tested on: UACC-62
UO-31 = tested on: UO-31

Measured: GI50

COc1ccc(/C=C2\CN(C)C/C(=C\c3ccc(OC)c(OC)c3OC)C2=O)c(OC)c1OC
active: 786-0 88.7 nM | A498 146 nM | A549 294 nM | ACHN 218 nM | CAKI-1 485 nM | CCRF-CEM 19 nM | COLO 205 238 nM | DU-145 333 nM | HCC 2998 171 nM | HCT-116 111 nM | HL-60 19.1 nM | HOP-62 294 nM | HOP-92 617 nM | HT-29 171 nM | Hs-578T 303 nM | IGROV-1 311 nM | K562 19.2 nM | KM12 85.9 nM | LOX IMVI 115 nM | M14 73 nM | MCF7 50.7 nM | MDA-MB-231 282 nM | MDA-MB-435 19.9 nM | MDA-N 96.8 nM | MOLT-4 68.5 nM | Malme-3M 171 nM | NCI-H226 394 nM | NCI-H23 57.9 nM | NCI-H460 146 nM | NCI-H522 184 nM | NCI/ADR-RES 145 nM | OVCAR-3 110 nM | OVCAR-4 253 nM | OVCAR-5 232 nM | OVCAR-8 70 nM | PC-3 231 nM | RPMI-8226 29.2 nM | RXF 393 167 nM | SF-268 164 nM | SF-295 272 nM | SF-539 102 nM | SK-MEL-28 147 nM | SK-MEL-2 363 nM | SK-MEL-5 259 nM | SK-OV-3 586 nM | SN12C 101 nM | SNB-19 237 nM | SNB-75 973 nM | SR 65.8 nM | SW-620 155 nM | T47D 1050 nM | TK-10 1010 nM | U-251 33.3 nM | UACC-257 249 nM | UACC-62 200 nM
inactive: EKVX 1670 nM
369 nM: HCT-15

OC1c2ccccc2CCC1C(O)(C(F)(F)F)C(F)(F)F (centres undefined)
> 100000 nM: HCT-15
inactive: 786-0 > 100000 nM | A498 > 100000 nM | A549 > 100000 nM | ACHN > 100000 nM | CAKI-1 > 100000 nM | CCRF-CEM > 100000 nM | COLO 205 > 100000 nM | DU-145 > 100000 nM | EKVX > 100000 nM | HCC 2998 > 100000 nM | HCT-116 > 100000 nM | HL-60 > 100000 nM | HOP-62 > 100000 nM | HOP-92 35100 nM | HT-29 > 100000 nM | Hs-578T > 100000 nM | IGROV-1 > 100000 nM | K562 > 100000 nM | KM12 > 100000 nM | LOX IMVI > 100000 nM | M14 > 100000 nM | MCF7 46300 nM | MDA-MB-231 11000 nM | MDA-MB-435 > 100000 nM | MDA-N > 100000 nM | MOLT-4 > 100000 nM | Malme-3M > 100000 nM | NCI-H226 38400 nM | NCI-H23 85100 nM | NCI-H460 > 100000 nM | NCI-H522 > 100000 nM | NCI/ADR-RES > 100000 nM | OVCAR-3 58600 nM | OVCAR-4 > 100000 nM | OVCAR-5 > 100000 nM | OVCAR-8 > 100000 nM | PC-3 > 100000 nM | RPMI-8226 > 100000 nM | RXF 393 > 100000 nM | SF-268 > 100000 nM | SF-295 > 100000 nM | SF-539 > 100000 nM | SK-MEL-28 > 100000 nM | SK-MEL-2 > 100000 nM | SK-MEL-5 > 100000 nM | SK-OV-3 > 100000 nM | SN12C > 100000 nM | SNB-19 > 100000 nM | SNB-75 45800 nM | SR > 100000 nM | SW-620 > 100000 nM | T47D > 100000 nM | TK-10 > 100000 nM | U-251 > 100000 nM | UACC-62 > 100000 nM | UO-31 > 100000 nM
